According to the NIST ThermoML archive (doi:10.1016/j.jct.2014.12.027):
Numbers after ± are expanded uncertainties.

Assay: activity coefficient (dimensionless); of the first substance listed, at infinite dilution; xn = mol fraction of the nth substance listed
Conditions: 101 kPa, Liquid, Chromatography, x1 = 0

SMILES | activity coefficient (318.15 K) | activity coefficient (328.15 K) | activity coefficient (338.15 K) | activity coefficient (348.15 K) | activity coefficient (358.15 K) | activity coefficient (368.15 K)
CCCCCCC [heptane] + CCCC[n+]1ccc(C)cc1.N#CC(=C=[N-])C#N | 33.7 ± 2.3 | 31.3 ± 2.1 | 29.7 ± 2 | 27.6 ± 1.9 | 25.8 ± 1.8 | 24.7 ± 1.7
C=CCCCC [hex-1-ene] + CCCC[n+]1ccc(C)cc1.N#CC(=C=[N-])C#N | 11.1 ± 0.8 | 10.5 ± 0.7 | 10.2 ± 0.7 | 9.72 ± 0.66 | 9.17 ± 0.63 | 8.75 ± 0.6
CCCCCC [hexane] + CCCC[n+]1ccc(C)cc1.N#CC(=C=[N-])C#N | 24.3 ± 1.7 | 23 ± 1.6 | 22.1 ± 1.5 | 20.8 ± 1.4 | 20 ± 1.4 | 19.1 ± 1.3
CO [methanol] + CCCC[n+]1ccc(C)cc1.N#CC(=C=[N-])C#N | 0.663 ± 0.045 | 0.644 ± 0.044 | 0.625 ± 0.043 | 0.612 ± 0.043 | 0.593 ± 0.042 | 0.58 ± 0.041
CC1CCCCC1 [methylcyclohexane] + CCCC[n+]1ccc(C)cc1.N#CC(=C=[N-])C#N | 15.8 ± 1.1 | 14.8 ± 1 | 13.9 ± 1 | 13.4 ± 0.9 | 12.7 ± 0.9 | 12.1 ± 0.8
CCCCCCCCC [nonane] + CCCC[n+]1ccc(C)cc1.N#CC(=C=[N-])C#N | 65.1 ± 4.5 | 59.1 ± 4 | 55.7 ± 3.8 | 51.2 ± 3.5 | 47.6 ± 3.3 | 45.8 ± 3.1
C=CCCCCCC [oct-1-ene] + CCCC[n+]1ccc(C)cc1.N#CC(=C=[N-])C#N | 21.3 ± 1.5 | 20.3 ± 1.4 | 19.7 ± 1.3 | 18.9 ± 1.3 | 18.3 ± 1.3 | 17.8 ± 1.2
CCCCCCCC [octane] + CCCC[n+]1ccc(C)cc1.N#CC(=C=[N-])C#N | 46.4 ± 3.2 | 43.2 ± 3 | 41.1 ± 2.8 | 38.4 ± 2.6 | 36.3 ± 2.5 | 34.6 ± 2.4
CCCC(C)=O [pentan-2-one] + CCCC[n+]1ccc(C)cc1.N#CC(=C=[N-])C#N | 0.955 ± 0.06 | 0.986 ± 0.062 | 1.01 ± 0.06 | 1.05 ± 0.07 | 1.07 ± 0.07 | 1.1 ± 0.07
CCC(=O)CC [pentan-3-one] + CCCC[n+]1ccc(C)cc1.N#CC(=C=[N-])C#N | 0.942 ± 0.059 | 0.976 ± 0.061 | 1.01 ± 0.06 | 1.05 ± 0.07 | 1.07 ± 0.07 | 1.11 ± 0.07
CCCO [propan-1-ol] + CCCC[n+]1ccc(C)cc1.N#CC(=C=[N-])C#N | 1.06 ± 0.07 | 1.01 ± 0.06 | 0.965 ± 0.061 | 0.936 ± 0.059 | 0.906 ± 0.057 | 0.872 ± 0.056
CC(C)O [propan-2-ol] + CCCC[n+]1ccc(C)cc1.N#CC(=C=[N-])C#N | 1.15 ± 0.07 | 1.09 ± 0.07 | 1.04 ± 0.07 | 1 ± 0.06 | 0.961 ± 0.06 | 0.928 ± 0.059
c1ccncc1 [pyridine] + CCCC[n+]1ccc(C)cc1.N#CC(=C=[N-])C#N |  | 0.498 ± 0.038 | 0.51 ± 0.038 | 0.528 ± 0.039 | 0.542 ± 0.04 | 0.557 ± 0.04
C1CCOC1 [tetrahydrofuran] + CCCC[n+]1ccc(C)cc1.N#CC(=C=[N-])C#N | 0.779 ± 0.051 | 0.807 ± 0.052 | 0.827 ± 0.053 | 0.856 ± 0.055 | 0.872 ± 0.056 | 0.907 ± 0.058
c1ccsc1 [thiophene] + CCCC[n+]1ccc(C)cc1.N#CC(=C=[N-])C#N | 0.636 ± 0.044 | 0.658 ± 0.045 | 0.678 ± 0.046 | 0.704 ± 0.047 | 0.733 ± 0.049 | 0.748 ± 0.049
Cc1ccccc1 [toluene] + CCCC[n+]1ccc(C)cc1.N#CC(=C=[N-])C#N | 1.19 ± 0.08 | 1.23 ± 0.08 | 1.27 ± 0.08 | 1.32 ± 0.09 | 1.36 ± 0.09 | 1.4 ± 0.09
O [water] + CCCC[n+]1ccc(C)cc1.N#CC(=C=[N-])C#N | 0.971 ± 0.061 | 0.926 ± 0.059 | 0.887 ± 0.056 | 0.859 ± 0.055 | 0.826 ± 0.053 | 0.796 ± 0.052
